Test results taken from PubChem BioAssay (NCI).
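1) Cells in 96-well plates. 2) Compound, 48 h, 5 concentrations. 3) Linear interpolation between surrounding doses. 4) Unreached endpoint = highest concentration. Here, GI50 denotes the concentration required for 50% inhibition of growth. TGI: total growth inhibition.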

How the values were obtained:
Test in all cases: inhibition of tumour cell growth, NCI panel, 48 h
[1] = tested on: NCI-H23 lung
[2] = tested on: SK-MEL-2 melanoma
[3] = tested on: M14 melanoma
[4] = tested on: SNB-19 CNS
[5] = tested on: IGROV1 ovarian
[6] = tested on: HCT-116 colon
[7] = tested on: SF-268 CNS
[8] = tested on: PC-3 prostate
[9] = tested on: MDA-MB-435
[10] = tested on: MDA-N

SMILES | TGI [1] | TGI [2] | TGI [3] | TGI [4] | TGI [5] | TGI [6] | TGI [7] | TGI [8] | TGI [9] | TGI [10] | GI50 [1] | GI50 [2] | GI50 [8] | GI50 [4] | GI50 [5] | GI50 [9] | GI50 [7]
C/C(CCN(C)C)=N\OC(=O)c1ccccc1 | > 100 µM | > 100 µM | > 100 µM | > 100 µM | > 100 µM | > 100 µM | > 100 µM | – | – | – | – | – | – | – | – | – | –
C=C(C)CCC(O)[C@](C)(O)[C@H]1[C@H](O)C[C@@]2(C)[C@@H]3CCc4c(cc(OC5OC(CO)C(O)C(O)C5O)c(O)c4C)C3(C)C(=O)C[C@]12C (stereo partly drawn) | > 100 µM | > 100 µM | > 100 µM | > 100 µM | > 100 µM | > 100 µM | > 100 µM | > 100 µM | > 100 µM | > 100 µM | – | – | – | – | – | – | –
Cn1c(=O)n(C2(C)CSC2)c2ccccc21 | > 100 µM | – | > 100 µM | > 100 µM | > 100 µM | > 100 µM | > 100 µM | – | – | – | – | – | – | – | – | – | –
Cc1ccc(S(=O)(=O)Nn2c(S)c(C#N)c(-c3ccc(Cl)cc3)c(C#N)c2=O)cc1 | > 100 µM | > 100 µM | > 100 µM | > 100 µM | 59.4 µM | > 100 µM | – | > 100 µM | 86.9 µM | – | – | – | – | – | – | – | –
CC1=CC[C@@H](C(C)(C)O)C[C@@H]1O | > 5000 µM | > 5000 µM | > 5000 µM | > 5000 µM | > 5000 µM | > 5000 µM | > 5000 µM | – | – | – | – | – | – | – | – | – | –
COc1cc(C(c2ccc3c(c2)OCO3)C2SCCCS2)cc(OC)c1OC (stereo not drawn) | 51.8 µM | > 100 µM | 95.5 µM | 5.41 µM | 8.17 µM | 10.6 µM | > 100 µM | > 100 µM | – | 1.77 µM | – | – | – | – | – | – | –
S=C1NNC2(C(=S)N1)c1ccccc1-c1ccccc12 | > 10 µM | – | > 10 µM | – | > 10 µM | – | > 10 µM | – | – | – | – | – | – | – | – | – | –
COc1ccc(-c2cc(=O)c3cc(O)ccc3o2)c(OC)c1OC | > 100 µM | > 100 µM | > 100 µM | > 100 µM | > 100 µM | 61.8 µM | 93 µM | – | – | – | – | – | – | – | – | – | –
COc1nc(NC2OC(CO)C(O)C(O)C2O)c(N)c(=O)[nH]1 (stereo not drawn) | > 100 µM | > 100 µM | – | > 100 µM | > 100 µM | > 100 µM | > 100 µM | – | – | – | – | – | – | – | – | – | –
OCC1OC(n2cnc3c(Cl)nc(Nc4ccc(Cl)c(Cl)c4)nc32)CC1O (stereo not drawn) | 22.6 µM | 19.2 µM | 32 µM | > 50 µM | 27.8 µM | 28.9 µM | 28.6 µM | 37.1 µM | 22.3 µM | – | – | – | – | – | – | – | –
COC(=O)c1c2c(cc3c1CC1(C3)Cc3cc4c(c(C(=O)OC)c3C1)CCC4)CCC2 | > 100 µM | > 100 µM | > 100 µM | – | > 100 µM | > 100 µM | – | > 100 µM | > 100 µM | > 100 µM | – | – | – | – | – | – | –
O=c1c2cc([N+](=O)[O-])ccc2n2n1CCCCC2 | > 100 µM | – | > 100 µM | > 100 µM | > 100 µM | > 100 µM | > 100 µM | > 100 µM | > 100 µM | > 100 µM | – | – | – | – | – | – | –
CC#CC#C/C=C1\C=CC2(OC=CC2O)O1 (stereo not drawn) | > 23.3 µM | > 23.3 µM | > 23.3 µM | > 23.3 µM | > 23.3 µM | 22.9 µM | > 23.3 µM | – | – | – | – | – | – | – | – | – | –
CCCCCCCCCCCCCCCCCCOc1ccccc1COP(=O)(O)OOCC[N+](C)(C)C | 4.27 µM | 9.65 µM | – | 7.76 µM | 1.5 µM | – | 7.19 µM | 1.8 µM | 12.3 µM | – | 0.804 µM | 1.71 µM | 0.824 µM | 1.44 µM | 0.738 µM | 2.65 µM | 1.55 µM
O=C(O)c1ccc(Nc2cnc3cc(C(F)(F)F)ccc3n2)cc1 | > 100 µM | – | – | > 100 µM | > 100 µM | > 100 µM | > 100 µM | > 100 µM | > 100 µM | > 100 µM | – | – | – | – | – | – | –
CC(=O)OCC1OC(O[C@H]2C=C[C@@H](C(=O)OCc3ccccc3)n3c(=O)n(-c4ccccc4)c(=O)n32)C(OC(C)=O)C(OC(C)=O)C1OC(C)=O (stereo partly drawn) | 9.02 µM | 10.1 µM | 2.95 µM | 30.1 µM | 6.13 µM | – | 4.23 µM | 13 µM | 4.45 µM | 7.1 µM | – | – | – | – | – | – | –
CCCC(C(=O)OC)C1N=C(NC#N)N(Cc2ccccc2)C1=O (stereo not drawn) | > 100 µM | > 100 µM | > 100 µM | > 100 µM | > 100 µM | > 100 µM | > 100 µM | – | – | – | – | – | – | – | – | – | –
COC(=O)C1=CCC2c3[nH]c4ccccc4c3CCN2C1 (stereo not drawn) | > 354 µM | > 354 µM | – | > 354 µM | > 354 µM | > 354 µM | > 354 µM | – | – | – | – | – | – | – | – | – | –
CC(C)(C)CI | > 100 µM | 37.6 µM | 71.3 µM | 89.1 µM | > 100 µM | 39.7 µM | > 100 µM | – | – | – | – | – | – | – | – | – | –
CC(=O)Oc1cc(-c2oc3cc(OC(C)=O)c(C4OC(CO)C(O)C(O)C4O)c(OC(C)=O)c3c(=O)c2O)c(OC(C)=O)cc1O (stereo not drawn) | > 100 µM | > 100 µM | > 100 µM | – | > 100 µM | > 100 µM | – | > 100 µM | > 100 µM | > 100 µM | – | – | – | – | – | – | –
O=C(CCCn1ccnc1[N+](=O)[O-])NCCn1cnc([N+](=O)[O-])n1 | > 100 µM | > 100 µM | > 100 µM | – | > 100 µM | > 100 µM | > 100 µM | > 100 µM | > 100 µM | > 100 µM | – | – | – | – | – | – | –
CN(/N=C/C=N/N(C)C1=NCCN1)C1=NCCN1 | > 100 µM | – | > 100 µM | > 100 µM | > 100 µM | > 100 µM | > 100 µM | > 100 µM | > 100 µM | > 100 µM | – | – | – | – | – | – | –
O=C1CN(c2ccccc2)C(=O)CN1NCNN1CC(=O)N(c2ccccc2)CC1=O | > 100 µM | – | > 100 µM | > 100 µM | > 100 µM | > 100 µM | > 100 µM | > 100 µM | > 100 µM | > 100 µM | – | – | – | – | – | – | –
CN(C)NC1=NS(=O)(=O)c2cc3c(=O)n(C)[nH]c3cc2S1 | > 10 µM | > 10 µM | > 10 µM | > 10 µM | > 10 µM | > 10 µM | > 10 µM | > 10 µM | – | > 10 µM | – | – | – | – | – | – | –
NC(CSCSCC(N)C(=O)O)C(=O)O (stereo not drawn) | > 225 µM | > 225 µM | – | > 225 µM | > 225 µM | > 225 µM | > 225 µM | – | – | – | – | – | – | – | – | – | –
